Laboratory results: patent publication US20130123135A1, “Methods To Identify Modulators of TAS2R48 Receptors” (priority 2010, published 2013)
Where two headings read alike, the source gives them in different places.

Test system: Sham transfected HEK293T/G16gust44 cells
Description: The above procedure was also carried out for HEK293T/G16gust44 cells, formed as described in WO 2004/055048 with the exception that no DNA was added during the process. These cells are termed Sham transfected cells.
On day 0, the HEK293T cells formed as described in example 2, were seeded in antibiotic-free growth medium (standard DMEM with 10% (v/v) heat-inactivated fetal bovine serum, 2 mM L-glutamine […], 100 units/ml penicillin, and 100 [g/ml streptomycin) into black wall/clear bottom 96-well plates, coated with poly(ethylenimine) (0.005% v/v) at a concentration of 15,000 cells per well and incubated for 48 hours in humidified atmosphere (37° C., 5% CO2).
Prior to performing the assay, the growth medium was discarded and the cells were left in a humidified atmosphere (37° C., 5% CO2) for 1 hour with 50 μl of loading buffer consisting of 1.5 μM Fluo-4 AM and […] probenicid (Sigma-Aldrich, St. Louis, Mo., US) in DMEM.
Following this the 96-well plate was washed 5 times with 100 μl of assay buffer (130 mM NaCl, 5 mM KCl, 10 mM 4-(2-hydroxyethyl)-1-piperazineethanesulfonic acid (HEPES), 2 mM CaCl2, and 5 mM dextrose, pH 7.4) per well, using an automated plate washer (BioTek).
The plate was then further incubated for 30 minutes at room temperature in the dark to allow for complete de-esterification of the Fluo-4. Afterwards the plate was washed 5 times with 100 μl of assay buffer per well, and reconstituted with 100 μl of assay buffer per well.
Cyclamate solutions ranging in concentration from 250 mM to 800 mM were prepared in assay buffer.
To test receptor activation 20 μl of one of these cyclamate test solutions was added to the assay buffer of at least one well of the 96 well plate. This step was repeated until all cyclamate solutions of differing concentrations had been added to at least one well. Care was taken to ensure that only one cyclamate solution was added per well. The resulting cyclamate concentrations in the well plates ranged in concentration from 25 mM to 80 mM (This is due to the dilution of the cyclamate solution in the assay buffer present in the well).
For assay reading, the plate was placed in a Fluorometric Imaging Plate Reader (FLIPR) (FLIPR-TETRA™, Molecular Devices, Sunnyvale, Calif., US).
For each well of the plate fluorescence was continuously monitored for 20 seconds to give a signal baseline (averaged to give F0) prior to cyclamate addition and for 120 seconds after cyclamate addition. The change in signal divided by F0 gives ΔF/F0 indicated in the table, with ΔF being the maximum signal occurring within the 120 seconds minus the minimum signal (occurring within the 120 seconds after cyclamate addition.
As a control the above procedure was also carried out for the sham transfected cells formed as described in example 2.

O=S(=O)(O)NC1CCCCC1 [Cyclamate, cyclamate]
Cyclamate Average ΔF/F0, Sham Transfected (cyclamate 25 mM in well): 0.186
Cyclamate Average ΔF/F0, Sham Transfected (cyclamate 30 mM in well): 0.182
Cyclamate Average ΔF/F0, Sham Transfected (cyclamate 35 mM in well): 0.198
Cyclamate Average ΔF/F0, Sham Transfected (cyclamate 40 mM in well): 0.204
Cyclamate Average ΔF/F0, Sham Transfected (cyclamate 45 mM in well): 0.194
Cyclamate Average ΔF/F0, Sham Transfected (cyclamate 50 mM in well): 0.2
Cyclamate Average ΔF/F0, Sham Transfected (cyclamate 55 mM in well): 0.182
Cyclamate Average ΔF/F0, Sham Transfected (cyclamate 60 mM in well): 0.16
Cyclamate Average ΔF/F0, Sham Transfected (cyclamate 65 mM in well): 0.17
Cyclamate Average ΔF/F0, Sham Transfected (cyclamate 70 mM in well): 0.14
Cyclamate Average ΔF/F0, Sham Transfected (cyclamate 75 mM in well): 0.11
Cyclamate Average ΔF/F0, Sham Transfected (cyclamate 80 mM in well): 0.178
